Laboratory results taken from PMC8119466, “A screen of FDA-approved drugs identifies inhibitors of protein tyrosine phosphatase 4A3 (PTP4A3 or PRL-3)” (Scientific Reports, 2021).
Counter-ions that a name gives are not always drawn.

Assays:
Assay type in all cases: biochemical
Settings in all cases: FDA-approved drug screen; compared to DMSO
recombinant PRL-1 = molecular target: T1, recombinant PRL-1 (Homo sapiens, UniProt Q93096); test: In vitro phosphatase assay (DiFMUP hydrolysis), PRL-1; further: test concentration or dose not given here
T1 construct: 6xHis (N, cleaved yes); made in house; host or cells: E. coli One Shot BL21 Star
T1 sequence (Q93096 1-173): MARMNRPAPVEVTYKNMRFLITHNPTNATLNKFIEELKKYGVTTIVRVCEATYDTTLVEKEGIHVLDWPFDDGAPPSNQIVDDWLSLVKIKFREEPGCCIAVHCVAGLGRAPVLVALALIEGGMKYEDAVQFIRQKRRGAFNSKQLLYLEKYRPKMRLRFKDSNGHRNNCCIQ

recombinant PRL-2 = molecular target: T2, recombinant PRL-2 (Homo sapiens, UniProt Q12974); test: In vitro phosphatase assay (DiFMUP hydrolysis), PRL-2;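 further: PRL-2 activity read as DiFMUP hydrolysis after 20 min at room temperature with drug, enzyme first pre-reduced at 4 °C for 20 min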
T2 construct: 6xHis (N, cleaved yes); made in house; host or cells: E. coli One Shot BL21 Star
T2 sequence (Q12974 1-167): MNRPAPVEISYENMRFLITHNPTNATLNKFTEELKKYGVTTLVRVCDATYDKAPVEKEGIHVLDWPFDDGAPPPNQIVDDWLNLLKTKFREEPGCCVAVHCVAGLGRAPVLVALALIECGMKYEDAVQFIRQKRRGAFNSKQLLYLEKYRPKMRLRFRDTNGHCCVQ

recombinant PRL-3 = molecular target: T3, recombinant PRL-3 (Homo sapiens, UniProt O75365); test: In vitro phosphatase assay (DiFMUP hydrolysis), PRL-3; further: test concentration or dose not given here
T3 construct: 6xHis (N, cleaved yes); made in house; host or cells: E. coli One Shot BL21 Star
T3 sequence (O75365 whole entry): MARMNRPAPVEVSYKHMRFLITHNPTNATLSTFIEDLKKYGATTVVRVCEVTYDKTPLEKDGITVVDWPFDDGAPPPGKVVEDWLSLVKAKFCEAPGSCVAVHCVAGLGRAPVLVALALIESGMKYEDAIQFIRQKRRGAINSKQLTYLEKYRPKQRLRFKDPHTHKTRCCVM

Compound: Clc1ccc(C(c2ccccc2Cl)C(Cl)Cl)cc1 (stereo not drawn) [Mitotane]
- % Phosphatase Activity (compared to DMSO) PRL-1 (recombinant PRL-1): 98%
- % Phosphatase Activity (compared to DMSO) PRL-2 (recombinant PRL-2): 93%
- % Phosphatase Activity (compared to DMSO) PRL-3 (recombinant PRL-3): 103%

Compound: O=C1c2c(O)ccc(O)c2C(=O)c2c(NCCNCCO)ccc(NCCNCCO)c21 [Mitoxantrone HCl]
- % Phosphatase Activity (compared to DMSO) PRL-1 (recombinant PRL-1): 74%
- % Phosphatase Activity (compared to DMSO) PRL-2 (recombinant PRL-2): 76%
- % Phosphatase Activity (compared to DMSO) PRL-3 (recombinant PRL-3): 61%

Compound: NC(=O)c1ncn([C@@H]2O[C@H](CO)[C@@H](O)[C@H]2O)c1O [Mizoribine]
- % Phosphatase Activity (compared to DMSO) PRL-1 (recombinant PRL-1): 93%
- % Phosphatase Activity (compared to DMSO) PRL-2 (recombinant PRL-2): 78%
- % Phosphatase Activity (compared to DMSO) PRL-3 (recombinant PRL-3): 85%

Compound: Nc1ccccc1NC(=O)c1ccc(CNc2nccc(-c3cccnc3)n2)cc1 [Mocetinostat (MGCD0103)]
- % Phosphatase Activity (compared to DMSO) PRL-1 (recombinant PRL-1): 98%
- % Phosphatase Activity (compared to DMSO) PRL-2 (recombinant PRL-2): 108%
- % Phosphatase Activity (compared to DMSO) PRL-3 (recombinant PRL-3): 84%

Compound: NC(=O)C[S+]([O-])C(c1ccccc1)c1ccccc1 (stereo not drawn) [Modafinil]
- % Phosphatase Activity (compared to DMSO) PRL-1 (recombinant PRL-1): 91%
- % Phosphatase Activity (compared to DMSO) PRL-2 (recombinant PRL-2): 92%
- % Phosphatase Activity (compared to DMSO) PRL-3 (recombinant PRL-3): 82%

Compound: CCOC(=O)[C@H](CCc1ccccc1)N[C@@H](C)C(=O)N1Cc2cc(OC)c(OC)cc2C[C@H]1C(=O)O [Moexipril HCl]
- % Phosphatase Activity (compared to DMSO) PRL-1 (recombinant PRL-1): 103%
- % Phosphatase Activity (compared to DMSO) PRL-2 (recombinant PRL-2): 98%
- % Phosphatase Activity (compared to DMSO) PRL-3 (recombinant PRL-3): 83%

Compound: CCOC(=O)CC(=O)N1CCSC1COc1ccccc1OC (stereo not drawn) [Moguisteine]
- % Phosphatase Activity (compared to DMSO) PRL-1 (recombinant PRL-1): 104%
- % Phosphatase Activity (compared to DMSO) PRL-2 (recombinant PRL-2): 98%
- % Phosphatase Activity (compared to DMSO) PRL-3 (recombinant PRL-3): 87%

Compound: O=c1c(-n2ccnn2)c[nH]n1-c1cc(N2CCOCC2)ncn1 [Molidustat (BAY 85-3934)]
- % Phosphatase Activity (compared to DMSO) PRL-1 (recombinant PRL-1): 90%
- % Phosphatase Activity (compared to DMSO) PRL-2 (recombinant PRL-2): 74%
- % Phosphatase Activity (compared to DMSO) PRL-3 (recombinant PRL-3): 84%

Compound: CCOC(=O)[N-]c1cn(N2CCOCC2)n[o+]1 [Molsidomine]
- % Phosphatase Activity (compared to DMSO) PRL-1 (recombinant PRL-1): 99%
- % Phosphatase Activity (compared to DMSO) PRL-2 (recombinant PRL-2): 110%
- % Phosphatase Activity (compared to DMSO) PRL-3 (recombinant PRL-3): 79%

Compound: C[C@@H]1C[C@H]2[C@@H]3CCC4=CC(=O)C=C[C@]4(C)[C@@]3(Cl)[C@@H](O)C[C@]2(C)[C@@]1(OC(=O)c1ccco1)C(=O)CCl [Mometasone furoate]
- % Phosphatase Activity (compared to DMSO) PRL-1 (recombinant PRL-1): 85%
- % Phosphatase Activity (compared to DMSO) PRL-2 (recombinant PRL-2): 87%
- % Phosphatase Activity (compared to DMSO) PRL-3 (recombinant PRL-3): 77%

Compound: Oc1ccc(OCc2ccccc2)cc1 [Monobenzone]
- % Phosphatase Activity (compared to DMSO) PRL-1 (recombinant PRL-1): 105%
- % Phosphatase Activity (compared to DMSO) PRL-2 (recombinant PRL-2): 112%
- % Phosphatase Activity (compared to DMSO) PRL-3 (recombinant PRL-3): 72%

Compound: CC(C)(O)c1ccccc1CC[C@@H](SCC1(CC(=O)O)CC1)c1cccc(/C=C/c2ccc3ccc(Cl)cc3n2)c1 [Montelukast Sodium]
- % Phosphatase Activity (compared to DMSO) PRL-1 (recombinant PRL-1): 172%
- % Phosphatase Activity (compared to DMSO) PRL-2 (recombinant PRL-2): 161%
- % Phosphatase Activity (compared to DMSO) PRL-3 (recombinant PRL-3): 182%

Compound: CCOc1cc(N)c(Cl)cc1C(=O)NCC1CN(Cc2ccc(F)cc2)CCO1 (stereo not drawn) [Mosapride Citrate]
- % Phosphatase Activity (compared to DMSO) PRL-1 (recombinant PRL-1): 88%
- % Phosphatase Activity (compared to DMSO) PRL-2 (recombinant PRL-2): 101%
- % Phosphatase Activity (compared to DMSO) PRL-3 (recombinant PRL-3): 57%

Compound: CCCN(CCC)C(=O)C1=Cc2ccc(-c3ccc(C(=O)N4CCCC4)cc3)cc2N=C(N)C1 [Motolimod (VTX-2337)]
- % Phosphatase Activity (compared to DMSO) PRL-1 (recombinant PRL-1): 103%
- % Phosphatase Activity (compared to DMSO) PRL-2 (recombinant PRL-2): 90%
- % Phosphatase Activity (compared to DMSO) PRL-3 (recombinant PRL-3): 106%

Compound: CO[C@@]1(NC(=O)C(C(=O)O)c2ccc(O)cc2)C(=O)N2C(C(=O)O)=C(CSc3nnnn3C)CO[C@@H]21 (stereo partly drawn) [Moxalactam Disodium]
- % Phosphatase Activity (compared to DMSO) PRL-1 (recombinant PRL-1): 88%
- % Phosphatase Activity (compared to DMSO) PRL-2 (recombinant PRL-2): 97%
- % Phosphatase Activity (compared to DMSO) PRL-3 (recombinant PRL-3): 89%

Compound: COc1c(N2C[C@@H]3CCCN[C@@H]3C2)c(F)cc2c(=O)c(C(=O)O)cn(C3CC3)c12 [Moxifloxacin HCl]
- % Phosphatase Activity (compared to DMSO) PRL-1 (recombinant PRL-1): 562%
- % Phosphatase Activity (compared to DMSO) PRL-2 (recombinant PRL-2): 594%
- % Phosphatase Activity (compared to DMSO) PRL-3 (recombinant PRL-3): 417%

Compound: COc1nc(C)nc(Cl)c1N=C1NCCN1 [Moxonidine]
- % Phosphatase Activity (compared to DMSO) PRL-1 (recombinant PRL-1): 105%
- % Phosphatase Activity (compared to DMSO) PRL-2 (recombinant PRL-2): 109%
- % Phosphatase Activity (compared to DMSO) PRL-3 (recombinant PRL-3): 80%

Compound: C/C(=C\C(=O)OCCCCCCCCC(=O)O)C[C@@H]1OC[C@H](C[C@@H]2O[C@H]2[C@@H](C)[C@H](C)O)[C@@H](O)[C@H]1O [Mupirocin]
- % Phosphatase Activity (compared to DMSO) PRL-1 (recombinant PRL-1): 92%
- % Phosphatase Activity (compared to DMSO) PRL-2 (recombinant PRL-2): 97%
- % Phosphatase Activity (compared to DMSO) PRL-3 (recombinant PRL-3): 69%

Compound: COc1c(C)c2c(c(O)c1C/C=C(\C)CCC(=O)OCCN1CCOCC1)C(=O)OC2 [Mycophenolate Mofetil]
- % Phosphatase Activity (compared to DMSO) PRL-1 (recombinant PRL-1): 131%
- % Phosphatase Activity (compared to DMSO) PRL-2 (recombinant PRL-2): 125%
- % Phosphatase Activity (compared to DMSO) PRL-3 (recombinant PRL-3): 102%

Compound: COc1c(C)c2c(c(O)c1C/C=C(\C)CCC(=O)O)C(=O)OC2 [Mycophenolic acid]
- % Phosphatase Activity (compared to DMSO) PRL-1 (recombinant PRL-1): 125%
- % Phosphatase Activity (compared to DMSO) PRL-2 (recombinant PRL-2): 100%
- % Phosphatase Activity (compared to DMSO) PRL-3 (recombinant PRL-3): 85%

Compound: COc1ccc2cc(CCC(C)=O)ccc2c1 [Nabumetone]
- % Phosphatase Activity (compared to DMSO) PRL-1 (recombinant PRL-1): 91%
- % Phosphatase Activity (compared to DMSO) PRL-2 (recombinant PRL-2): 102%
- % Phosphatase Activity (compared to DMSO) PRL-3 (recombinant PRL-3): 68%

Compound: CC1CCc2c(N3CCC(O)CC3)c(F)cc3c(=O)c(C(=O)O)cn1c23 (stereo not drawn) [Nadifloxacin]
- % Phosphatase Activity (compared to DMSO) PRL-1 (recombinant PRL-1): 133%
- % Phosphatase Activity (compared to DMSO) PRL-2 (recombinant PRL-2): 108%
- % Phosphatase Activity (compared to DMSO) PRL-3 (recombinant PRL-3): 86%

Compound: N=C(N)c1ccc2cc(OC(=O)c3ccc(N=C(N)N)cc3)ccc2c1 [Nafamostat Mesylate]
- % Phosphatase Activity (compared to DMSO) PRL-1 (recombinant PRL-1): 204%
- % Phosphatase Activity (compared to DMSO) PRL-2 (recombinant PRL-2): 264%
- % Phosphatase Activity (compared to DMSO) PRL-3 (recombinant PRL-3): 67%

Compound: CCOc1ccc2ccccc2c1C(=O)N[C@@H]1C(=O)N2[C@@H]1SC(C)(C)[C@@H]2C(=O)O [Nafcillin Sodium]
- % Phosphatase Activity (compared to DMSO) PRL-1 (recombinant PRL-1): 98%
- % Phosphatase Activity (compared to DMSO) PRL-2 (recombinant PRL-2): 108%
- % Phosphatase Activity (compared to DMSO) PRL-3 (recombinant PRL-3): 60%

Compound: COc1ccccc1N1CCN(CC(O)COc2cccc3ccccc23)CC1 (stereo not drawn) [Naftopidil]
- % Phosphatase Activity (compared to DMSO) PRL-1 (recombinant PRL-1): 109%
- % Phosphatase Activity (compared to DMSO) PRL-2 (recombinant PRL-2): 111%
- % Phosphatase Activity (compared to DMSO) PRL-3 (recombinant PRL-3): 94%

Compound: CCn1cc(C(=O)O)c(=O)c2ccc(C)nc21 [Nalidixic acid]
- % Phosphatase Activity (compared to DMSO) PRL-1 (recombinant PRL-1): 112%
- % Phosphatase Activity (compared to DMSO) PRL-2 (recombinant PRL-2): 122%
- % Phosphatase Activity (compared to DMSO) PRL-3 (recombinant PRL-3): 100%
